In ChEMBL document CHEMBL3507680, “University of Dundee, Gates Library screen for HepG2 cell viability” one finds cytotoxicity data, which are given here for 100 compounds.

This data set in a line: Human HepG2 cell viability assay in 384 well format. The data set is classed as toxicity, cell-based. The arrangement: dose 125 nL, time 70.5 hour; cytotoxicity at 70.5 h: concentration not given beside the values. The note with it: HepG2 cells, read-out: Inhibition.
Regarding `Cn1c(CN2CCCC2)nnc1C1CCCN(C(=O)N2CCOCC2)C1` (stereo not given), the cytotoxicity at 70.5 h is -3.17%.

Regarding `CC(C)c1nccn1C1CCCN(C(=O)c2ccc3[nH]nnc3c2)C1` (stereo not given), the cytotoxicity at 70.5 h turned out to be 30.1%.

Turning to `COc1cccc(C(=O)Nc2ccc(OC3CCN(C)CC3)cc2)c1`, the cytotoxicity at 70.5 h is -4.5%.

Turning to `CC(C)c1nccn1-c1cccc(C2CCCN(S(=O)(=O)N(C)C)C2)n1` (stereo not given), the cytotoxicity at 70.5 h is -3.37%.

Take `Cn1cc(CN2CCCn3cnc(COCc4ccco4)c3C2)cn1`: the cytotoxicity at 70.5 h turned out to be 3.06%.

Regarding `CCn1cc(CN2CCC(O)(Cn3ccc4ncccc43)CC2)cn1`, the cytotoxicity at 70.5 h was -0.72%.

For `Cc1cc(=O)n(C)cc1NC(=O)Cc1cccc(Cl)c1`, the cytotoxicity at 70.5 h is -0.253%.

`CCn1cnnc1CNC(=O)N1CCN(CC(C)C)CC1`: the cytotoxicity at 70.5 h is -1.52%.

Take `Cc1cc(CN2CCCC(C)(CO)C2)ccc1F` (stereo not given): the cytotoxicity at 70.5 h was -6.61%.

With `CCc1noc(CN2CCN(C(=O)N(CC)CC)CC2)n1`, the cytotoxicity at 70.5 h is -10%.

For the compound `CC1CS(=O)(=O)CCN1Cc1ccccc1N(C)C` (stereo not given), the cytotoxicity at 70.5 h is -0.403%.

`CCOC(=O)c1cnn(-c2cc(C)ccn2)c1N`: the cytotoxicity at 70.5 h is 8.9%.

`COc1ccc(CNCC2CNc3cc(C)nn3C2)cn1` (stereo not given): the cytotoxicity at 70.5 h is -2.49%.

As for `CC1(C(N)=O)CN(CC2CCOCC2)CCO1` (stereo not given), the cytotoxicity at 70.5 h was determined as 53.2%.

As for `CS(=O)(=O)Nc1cccc(CNC(=O)CCc2ccsc2)c1`, the cytotoxicity at 70.5 h is -1.95%.

As to `OC(CN1CCC(c2ccn[nH]2)CC1)c1cccc(F)c1` (stereo not given), the cytotoxicity at 70.5 h is -28.7%.

For the compound `Cc1cnn(CC2CN(Cc3cccc(C(=O)N(C)C)c3)CCO2)c1` (stereo not given), the cytotoxicity at 70.5 h was 3.78%.

`COc1ccc2cc(CN(C)C(C)c3nc(C4CC4)no3)ccc2c1` (stereo not given): the cytotoxicity at 70.5 h was -0.253%.

`CC(C)CN(CC(O)c1ccc(F)cc1)C(=O)c1csnn1` (stereo not given): the cytotoxicity at 70.5 h was 14.1%.

Take `Cc1nnc(C(C)NCC2(c3ccc(Cl)cc3)CCOCC2)o1` (stereo not given): the cytotoxicity at 70.5 h is -18.1%.

For the compound `CCC(=O)N1CC[C@H]2[C@H](C[C@@H](CN3CCCC3)N2c2nccs2)C1`, the cytotoxicity at 70.5 h was -3.2%.

With `Cc1noc(C)c1CNc1cc(N2CCCC2CO)ncn1` (stereo not given), the cytotoxicity at 70.5 h was -5.89%.

Consider `O=C(c1ccc(Cl)cc1)N1CCC2(C1)C(=O)Nc1ccccc12` (stereo not given), for which the cytotoxicity at 70.5 h is -7.9%.

In the case of `CC(=O)NC1CCCN(C(=O)Nc2cnc3c(cnn3C(C)C)c2)C1` (stereo not given), the cytotoxicity at 70.5 h is -2.01%.

In the case of `Cc1ccc(CC2COc3ccccc3C2)c(N)n1` (stereo not given), the cytotoxicity at 70.5 h was found to be 16.3%.

Consider `COc1ccccc1CN1CC(O)CN(C(=O)OCC(C)C)CC1=O` (stereo not given), for which the cytotoxicity at 70.5 h was -10.9%.

For the compound `COc1ccccc1C(O)CNC(=O)Nc1ncccc1C` (stereo not given), the cytotoxicity at 70.5 h turned out to be 7.49%.

As for `NC(=O)C1CN(c2ccc3cc(Br)ccc3n2)CCO1` (stereo not given), the cytotoxicity at 70.5 h was -109%.

`N#Cc1ccnc(N2CCN(CC(O)c3ccc(F)cc3F)CC2)c1` (stereo not given): the cytotoxicity at 70.5 h is -3.3%.

Regarding `CC1(C)CCN(Cc2ccccc2-c2nc(C(C)(C)C)cc(=O)[nH]2)C1`, the cytotoxicity at 70.5 h is -4.72%.

For `CNc1cccc(C2CCCN(C(C)=O)C2)n1` (stereo not given), the cytotoxicity at 70.5 h was -19.3%.

Take `O=C(NCCCn1ccnc1)C1CCC(=O)N1Cc1cccs1` (stereo not given): the cytotoxicity at 70.5 h was -9.7%.

For the compound `Cc1ccc2c(C(=O)N(C)C)cc(-c3cnn(CCO)c3)nc2c1C`, the cytotoxicity at 70.5 h was -3.4%.

Take `CCCc1n[nH]c(C2CN(C(=O)c3ccco3)CCO2)n1` (stereo not given): the cytotoxicity at 70.5 h is -10.8%.

Consider `Cc1cnc(C(=O)NCC2CCOc3ccccc3C2)cn1` (stereo not given), for which the cytotoxicity at 70.5 h stood at 14.4%.

Turning to `CC(C)(C(=O)NCC1CCN(Cc2cccnc2)C1)c1ccccc1` (stereo not given), the cytotoxicity at 70.5 h is -4.33%.

With `CCc1ocnc1C(=O)N1CCC(n2cc(-c3ccsc3)nn2)CC1`, the cytotoxicity at 70.5 h is -10.3%.

As to `CC(C(=O)Nc1ccon1)n1ccc(C(F)(F)F)n1` (stereo not given), the cytotoxicity at 70.5 h was 15.3%.

As to `CC(=O)N1CCCC(c2cnc(-c3c(C)nn(C)c3C)cn2)C1` (stereo not given), the cytotoxicity at 70.5 h is -20.6%.

Turning to `COc1ccc(-c2cc(N)on2)cc1OC`, the cytotoxicity at 70.5 h is -2.02%.

Take `COc1nc2c(cc1C(=O)NCCc1nc3c(s1)CCC3)CCC2`: the cytotoxicity at 70.5 h came to 3.25%.

As to `O=C(Cc1csc(-c2ccccc2F)n1)NCc1cccc(C(=O)O)c1`, the cytotoxicity at 70.5 h was -17.7%.

Regarding `CCNC(c1ccc(OC)cc1)c1cccnc1` (stereo not given), the cytotoxicity at 70.5 h was -8.14%.

Regarding `CN(C(=O)COC1CCCCC1)C1CCN(CC2CCOC2)CC1` (stereo not given), the cytotoxicity at 70.5 h is -1.92%.

Turning to `CN(C)c1ncc(-c2ccc(C(N)=O)cc2)c(C2CNCCO2)n1` (stereo not given), the cytotoxicity at 70.5 h was -4.35%.

On to `COc1cccc(S(=O)(=O)N2CCn3cnc(COCC4CC4)c3C2)c1`, for which the cytotoxicity at 70.5 h was -10%.

`Cc1cnn(Cc2cc(F)ccc2F)c1NC(=O)NC1CC1`: the cytotoxicity at 70.5 h was -7.32%.

Turning to `COc1cccc2c1OCC(NCCc1cnn(-c3ccccc3)c1)C2` (stereo not given), the cytotoxicity at 70.5 h was -8.4%.

Regarding `COCCN1CCC(CNC(=O)CCc2cc(F)ccc2F)C1` (stereo not given), the cytotoxicity at 70.5 h was -4.52%.

Take `COc1ccc(NC(=O)CN2CCCCC2C2OCCO2)cc1` (stereo not given): the cytotoxicity at 70.5 h is -4.96%.

As to `COC1CN(C(=O)OCC(C)C)CCC(=O)N(C)c2ccccc21` (stereo not given), the cytotoxicity at 70.5 h was -4.55%.

As to `COCCCC1(CO)CCCN(Cc2nccs2)C1` (stereo not given), the cytotoxicity at 70.5 h is -7.41%.

With `CC(C)c1ncc(CN2C[C@@H](CN3CCCC3)[C@@H](CO)C2)cn1`, the cytotoxicity at 70.5 h was 0.637%.

In the case of `NC(=O)c1ccc(S(=O)(=O)NC2CCN(Cc3ccccc3)C2=O)cc1` (stereo not given), the cytotoxicity at 70.5 h is -8.89%.

On to `CCn1nc(C)c(CNC(=O)c2nnc3ccc(Cl)cc3n2)c1C`, for which the cytotoxicity at 70.5 h amounted to 0.121%.

Regarding `CC(C)NC(=O)NCCCOC1CCOCC1`, the cytotoxicity at 70.5 h was -4.28%.

For `CN(Cc1cccc(OC(F)(F)F)c1)C(=O)Cc1ccon1`, the cytotoxicity at 70.5 h is -13.6%.

For `Cc1nc(C2CCCN2CC(=O)NCCOc2cccc(F)c2)no1` (stereo not given), the cytotoxicity at 70.5 h worked out at 19.2%.

Regarding `CCS(=O)(=O)c1ccccc1N1CCC(NC(=O)c2ccc[nH]2)CC1`, the cytotoxicity at 70.5 h was -1.59%.

In the case of `O=C(Nc1cccnc1)c1ccc(-n2cncn2)nn1`, the cytotoxicity at 70.5 h was determined as 13.8%.

For `COc1ccccc1OCCC(=O)N1CCCCC1c1nccs1` (stereo not given), the cytotoxicity at 70.5 h was 0.499%.

For the compound `Cc1nc(CNC(=O)NCC2(C)CCCc3ccccc32)no1` (stereo not given), the cytotoxicity at 70.5 h stood at 29.3%.

Take `Cc1noc(-c2ccc(N(C)Cc3nccs3)nc2)n1`: the cytotoxicity at 70.5 h is -9.04%.

Take `Cn1ccnc1CN1CC[C@H](O)[C@@H](n2ccc(=O)[nH]c2=O)CC1`: the cytotoxicity at 70.5 h is -3.14%.

On to `Cc1cc(F)ccc1NCC(=O)NCC(F)(F)F`, for which the cytotoxicity at 70.5 h is 0.946%.

Turning to `COc1ccccc1C(C)CC(=O)N1CCN(S(N)(=O)=O)CC1` (stereo not given), the cytotoxicity at 70.5 h was -3.69%.

Take `Cn1cc(NC(=O)Cc2cccs2)c(=O)n(C)c1=O`: the cytotoxicity at 70.5 h was -9.77%.

Turning to `O=C(Cc1ccc(F)cc1)NCC1CCN(Cc2ccsc2)CC1`, the cytotoxicity at 70.5 h was -3.3%.

For `CC(=O)c1c[nH]c(C(=O)N2CCN(C(C(N)=O)c3ccccc3)CC2)c1` (stereo not given), the cytotoxicity at 70.5 h amounted to 47.9%.

For `COCC(=O)N1CCC(c2nc3ccc(N4CCCC4)cn3n2)CC1`, the cytotoxicity at 70.5 h was -5.18%.

For the compound `CC(C)c1ccc(CNC(C)c2ccc(S(=O)(=O)N(C)C)cc2)cc1` (stereo not given), the cytotoxicity at 70.5 h was -2.78%.

In the case of `O=C(O)c1cccnc1CN1CCCC1CCc1ccccc1` (stereo not given), the cytotoxicity at 70.5 h was -14.9%.

Turning to `Cn1nccc1-c1nnn2c1COCC(CNC1CCOCC1)C2` (stereo not given), the cytotoxicity at 70.5 h was 0.0787%.

For `O=C([C@@H]1C[C@@H]2CCN(Cc3ccc4c(c3)OCO4)C[C@@H]2O1)N1CCCC1`, the cytotoxicity at 70.5 h was -11.1%.

Regarding `O=C(C1=CCCC1)N1C[C@@H]2COC[C@]2(COc2cccnc2)C1`, the cytotoxicity at 70.5 h was -5.78%.

`O=C(c1cccnc1)N1CCC2(CC1)CCN(c1ccsc1)C2=O`: the cytotoxicity at 70.5 h was -4.42%.

In the case of `Cc1ccc(CN2CCCC(c3nn(C)c4nccnc34)C2)s1` (stereo not given), the cytotoxicity at 70.5 h came to 9.04%.

On to `CN1C(=O)C2(CC(=O)Nc3[nH]ncc32)c2ccc(F)cc21` (stereo not given), for which the cytotoxicity at 70.5 h is -15.5%.

For `COCCNC(=O)c1ccc2c(=O)n3c(nc2c1)CCCCCC3`, the cytotoxicity at 70.5 h came to 7.92%.

Consider `CCc1nccn1C1CCCN(C(=O)c2cc[nH]n2)C1` (stereo not given), for which the cytotoxicity at 70.5 h is -1.71%.

Take `Cc1cc(C)nc(C2CCN(c3ccncn3)C2)n1` (stereo not given): the cytotoxicity at 70.5 h is -2.27%.

Consider `CCc1noc(CN(CC)C(=O)CC2C(=O)NCCN2CC=C(C)C)n1` (stereo not given), for which the cytotoxicity at 70.5 h came out at 1.29%.

As for `CCS(=O)(=O)N(C)C1CCN(C(=O)c2cc(C)cc(C)c2)CC1`, the cytotoxicity at 70.5 h is -14.2%.

As for `O=C(c1ccco1)N1C[C@H]2CCCN(Cc3ccc(F)cc3)[C@H]2C1`, the cytotoxicity at 70.5 h was -9.54%.

With `Cc1cc(C(=O)Nc2cccn(Cc3ccccc3)c2=O)no1`, the cytotoxicity at 70.5 h is 1.5%.

Turning to `CC(=O)Nc1nc(C(=O)NC(C)c2ccc(F)cc2)cs1` (stereo not given), the cytotoxicity at 70.5 h is -13.6%.

In the case of `CN1CCN(C(=O)C2CCN(c3cccnn3)CC2)CC1`, the cytotoxicity at 70.5 h is -5.88%.

For the compound `CC(C)c1nc(CN2CCCN(Cc3nnc(C4CC4)o3)CC2)no1`, the cytotoxicity at 70.5 h was determined as 1.11%.

In the case of `Cc1ccc(C(=O)Nc2cc(C(N)=O)ccc2CN(C)C)cc1Cl`, the cytotoxicity at 70.5 h is -7.51%.

`O=C1CCCN1Cc1ncn2c1CN(Cc1cccs1)CCC2`: the cytotoxicity at 70.5 h is -1.34%.

Take `Cc1noc(CNC(=O)NCCc2ccc(Cl)cc2)n1`: the cytotoxicity at 70.5 h was -3.31%.

For the compound `CCN1CCN(C(=O)CCC2CCN(C(C)CCC(=O)OC)CC2)CC1` (stereo not given), the cytotoxicity at 70.5 h worked out at 8.92%.

`CNc1[nH]nc(N)c1C(=O)Nc1ccc(OC)cc1`: the cytotoxicity at 70.5 h amounted to 1.52%.

In the case of `O=C(COCC(F)(F)F)Nc1nncs1`, the cytotoxicity at 70.5 h turned out to be 10.8%.

In the case of `CCS(=O)(=O)N1C[C@@H]2CN(Cc3cnn(C)c3)CCO[C@@H]2C1`, the cytotoxicity at 70.5 h was 2.4%.

For `O=C(C1CCCCC1)N1CCCC2(CCN(c3cnccn3)CC2)C1`, the cytotoxicity at 70.5 h came out at 23.6%.

Take `Cc1cc(C(=O)N2CCC3(CC2)CC(c2cccnc2)C(=O)N3C)no1` (stereo not given): the cytotoxicity at 70.5 h came to 1.74%.

Turning to `CC(C)CC(=O)N1CCc2ccc(S(=O)(=O)N3CCN(C)CC3)cc2C1`, the cytotoxicity at 70.5 h is -8.6%.

With `Cc1cc(-n2cncn2)ccc1C(=O)N(C)CC(F)(F)C(F)(F)F`, the cytotoxicity at 70.5 h was -5.19%.

For `CN1CCCC(c2cccc(-c3ccccc3F)n2)C1` (stereo not given), the cytotoxicity at 70.5 h is -2.39%.
